Assay results reported in ChEMBL document CHEMBL1201862, “PubChem BioAssay data set” (2004).
Active and inactive are the calls of the source.

Tests used:
[1] = biological target: Cytochrome P450 3A4 (Homo sapiens, UniProt P08684);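 also: CYP3A4 tested as one member of a cytochrome P450 panel screen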
[2] = biological target: Cytochrome P450 2C9 (Homo sapiens, UniProt P11712)
[3] = biological target: Melanocortin receptor 4 (Homo sapiens, UniProt P32245); type: functional, cell-based;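 also: Cell-based assay with luminescence read-out, confirmatory dose-response testing for agonist activity of biased ligands at MC4R; human U2OS cells with tagged receptor and beta-arrestin; potency of agonists that increase receptor coupling to beta-arrestin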
[4] = cells; type: functional
[5] = biological target: T1, Short transient receptor potential channel 4 (Mus musculus, UniProt Q9QUQ5); test: calcium entry via TRPC4 opening agents – cell-based, HEK293 TRPC4/mu-opioid, Fluo-4 calcium, dose response (AID 434937); type: functional
T1 sequence (Q9QUQ5 whole entry): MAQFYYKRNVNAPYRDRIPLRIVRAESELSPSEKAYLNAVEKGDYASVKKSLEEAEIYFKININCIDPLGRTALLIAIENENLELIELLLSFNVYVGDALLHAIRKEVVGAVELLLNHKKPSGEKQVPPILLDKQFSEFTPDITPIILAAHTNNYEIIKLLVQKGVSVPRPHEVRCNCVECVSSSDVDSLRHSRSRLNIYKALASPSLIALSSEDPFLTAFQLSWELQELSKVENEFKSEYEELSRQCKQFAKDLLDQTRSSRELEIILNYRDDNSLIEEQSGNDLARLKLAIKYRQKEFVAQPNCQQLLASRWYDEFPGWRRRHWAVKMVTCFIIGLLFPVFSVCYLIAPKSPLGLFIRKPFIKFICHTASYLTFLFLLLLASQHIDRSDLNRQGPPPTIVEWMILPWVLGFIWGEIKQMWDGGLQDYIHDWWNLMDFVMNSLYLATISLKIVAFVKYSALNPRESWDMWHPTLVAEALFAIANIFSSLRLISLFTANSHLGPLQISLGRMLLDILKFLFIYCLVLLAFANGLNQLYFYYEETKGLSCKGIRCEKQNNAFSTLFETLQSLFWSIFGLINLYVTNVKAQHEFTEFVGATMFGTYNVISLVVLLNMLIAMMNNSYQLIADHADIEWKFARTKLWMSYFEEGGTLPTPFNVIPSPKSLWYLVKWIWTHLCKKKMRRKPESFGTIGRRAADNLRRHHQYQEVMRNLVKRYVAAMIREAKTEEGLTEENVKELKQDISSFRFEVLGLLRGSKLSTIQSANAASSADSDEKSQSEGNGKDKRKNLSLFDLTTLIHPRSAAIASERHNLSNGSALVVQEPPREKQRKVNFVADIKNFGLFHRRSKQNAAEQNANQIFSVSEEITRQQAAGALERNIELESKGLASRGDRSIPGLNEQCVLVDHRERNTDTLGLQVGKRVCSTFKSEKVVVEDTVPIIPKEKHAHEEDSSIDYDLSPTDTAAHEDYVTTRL

[6] = biological target: T1, Short transient receptor potential channel 4; test: block of DAMGO-driven TRPC4 calcium entry – cell-based, HEK293 TRPC4/mu-opioid, Fluo-4 calcium, dose response (AID 434942); type: functional;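 also: potency of inhibitors blocking the TRPC4 calcium response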
[7] = biological target: Genome polyprotein (dengue virus type 2, UniProt P29990); test: flavivirus cap methylation enzyme inhibition – biochemical, confirmation dose response, primary screen (AID 588689); type: functional
[8] = biological target: T2, Calpain-2 catalytic subunit (Sus scrofa, UniProt P43367); test: m-calpain protease blockers, concentration series – biochemical, fluorogenic peptide substrate, dose response (AID 1420); type: functional
T2 sequence (P43367 whole entry): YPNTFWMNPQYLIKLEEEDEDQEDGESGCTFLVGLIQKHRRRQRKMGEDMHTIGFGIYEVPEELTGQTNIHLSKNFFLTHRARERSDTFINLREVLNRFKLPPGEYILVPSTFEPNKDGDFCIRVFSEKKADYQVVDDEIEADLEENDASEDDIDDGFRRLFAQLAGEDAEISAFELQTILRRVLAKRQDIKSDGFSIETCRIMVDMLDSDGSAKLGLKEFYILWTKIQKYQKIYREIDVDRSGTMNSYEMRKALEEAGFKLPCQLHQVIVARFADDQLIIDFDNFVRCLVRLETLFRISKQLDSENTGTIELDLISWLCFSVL

[9] = biological target: T3, Rac GTPase-activating protein 1 (Homo sapiens, UniProt Q9H0H5); test: blockers of MgcRacGAP-driven Rac1 GTP hydrolysis – biochemical, ADP Hunter fluorescence, primary and confirmatory, confirmation (AID 624330); type: functional
T3 sequence (Q9H0H5 whole entry): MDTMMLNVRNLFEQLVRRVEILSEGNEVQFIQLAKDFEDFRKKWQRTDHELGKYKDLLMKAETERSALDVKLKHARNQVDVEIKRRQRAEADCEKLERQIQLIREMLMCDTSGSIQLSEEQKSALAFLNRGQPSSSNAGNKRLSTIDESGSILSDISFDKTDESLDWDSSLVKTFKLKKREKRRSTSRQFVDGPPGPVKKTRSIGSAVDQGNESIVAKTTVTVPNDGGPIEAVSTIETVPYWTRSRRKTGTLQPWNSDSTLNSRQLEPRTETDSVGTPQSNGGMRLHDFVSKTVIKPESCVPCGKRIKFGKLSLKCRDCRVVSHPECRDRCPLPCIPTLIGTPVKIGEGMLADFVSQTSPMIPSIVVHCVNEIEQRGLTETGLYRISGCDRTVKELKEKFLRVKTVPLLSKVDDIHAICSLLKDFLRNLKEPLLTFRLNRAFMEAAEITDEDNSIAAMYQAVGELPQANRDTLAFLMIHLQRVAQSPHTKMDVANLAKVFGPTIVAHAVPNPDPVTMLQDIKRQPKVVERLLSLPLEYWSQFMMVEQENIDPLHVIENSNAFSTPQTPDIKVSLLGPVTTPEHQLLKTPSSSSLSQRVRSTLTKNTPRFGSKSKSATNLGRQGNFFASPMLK

[10] = biological target: Cytochrome P450 2C19 (Homo sapiens, UniProt P33261); test: Cytochrome panel assay with activity outcomes. Panel member name: p450-cyp2c19 Compounds with AC50 equal or less than 10 uM are considered active; type: functional; settings: read-out: AC50
[11] = microbe, parasite or virus in culture; type: functional; settings: Mycobacterium tuberculosis
[12] = biological target: T4, High affinity choline transporter 1 (Homo sapiens, UniProt Q9GZV3); test: human choline transporter blockers, potency – cell-based, 5-point CRC, membrane potential dye, dose response (AID 504840); type: functional
T4 sequence (Q9GZV3 whole entry): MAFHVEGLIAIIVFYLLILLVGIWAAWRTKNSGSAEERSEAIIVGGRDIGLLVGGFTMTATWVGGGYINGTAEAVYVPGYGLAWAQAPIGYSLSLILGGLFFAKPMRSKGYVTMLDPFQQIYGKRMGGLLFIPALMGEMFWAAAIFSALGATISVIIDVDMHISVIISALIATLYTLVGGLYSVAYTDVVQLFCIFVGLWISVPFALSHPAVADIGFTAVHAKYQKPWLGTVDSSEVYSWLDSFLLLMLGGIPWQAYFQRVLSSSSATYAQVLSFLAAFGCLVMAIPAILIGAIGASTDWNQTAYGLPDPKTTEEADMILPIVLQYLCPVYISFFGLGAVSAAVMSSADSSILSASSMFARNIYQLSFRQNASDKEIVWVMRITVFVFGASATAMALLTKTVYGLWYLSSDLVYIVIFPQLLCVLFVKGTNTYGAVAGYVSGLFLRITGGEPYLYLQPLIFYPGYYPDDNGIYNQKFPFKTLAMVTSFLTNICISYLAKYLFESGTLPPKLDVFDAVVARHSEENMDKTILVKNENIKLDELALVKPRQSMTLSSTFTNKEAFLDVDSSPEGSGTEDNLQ

Sequence of Genome polyprotein (P29990 2492-3391 limits assumed): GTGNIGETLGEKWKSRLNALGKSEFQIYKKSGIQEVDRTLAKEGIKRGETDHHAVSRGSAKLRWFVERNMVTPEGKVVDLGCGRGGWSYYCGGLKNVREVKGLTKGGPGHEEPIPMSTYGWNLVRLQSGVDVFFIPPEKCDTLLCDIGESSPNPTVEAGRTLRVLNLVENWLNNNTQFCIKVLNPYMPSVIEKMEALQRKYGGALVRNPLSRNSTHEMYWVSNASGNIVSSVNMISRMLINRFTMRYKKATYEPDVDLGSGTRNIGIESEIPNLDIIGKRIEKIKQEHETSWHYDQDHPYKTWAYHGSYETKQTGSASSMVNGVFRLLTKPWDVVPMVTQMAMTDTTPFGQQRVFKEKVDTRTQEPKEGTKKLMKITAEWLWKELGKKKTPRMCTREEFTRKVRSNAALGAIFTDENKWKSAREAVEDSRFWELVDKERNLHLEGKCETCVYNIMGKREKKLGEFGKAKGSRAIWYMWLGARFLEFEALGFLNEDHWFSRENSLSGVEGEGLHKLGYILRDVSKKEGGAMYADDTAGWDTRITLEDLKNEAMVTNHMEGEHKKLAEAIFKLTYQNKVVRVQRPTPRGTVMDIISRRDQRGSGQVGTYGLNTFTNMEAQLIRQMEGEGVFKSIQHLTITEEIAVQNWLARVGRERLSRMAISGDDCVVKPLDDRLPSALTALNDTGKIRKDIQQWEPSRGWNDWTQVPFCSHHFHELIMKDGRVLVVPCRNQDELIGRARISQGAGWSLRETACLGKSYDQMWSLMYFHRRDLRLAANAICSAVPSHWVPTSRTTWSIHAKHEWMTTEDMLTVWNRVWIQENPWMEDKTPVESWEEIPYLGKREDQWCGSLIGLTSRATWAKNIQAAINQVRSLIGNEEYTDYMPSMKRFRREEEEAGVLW
Sequence of Melanocortin receptor 4 (P32245 whole entry): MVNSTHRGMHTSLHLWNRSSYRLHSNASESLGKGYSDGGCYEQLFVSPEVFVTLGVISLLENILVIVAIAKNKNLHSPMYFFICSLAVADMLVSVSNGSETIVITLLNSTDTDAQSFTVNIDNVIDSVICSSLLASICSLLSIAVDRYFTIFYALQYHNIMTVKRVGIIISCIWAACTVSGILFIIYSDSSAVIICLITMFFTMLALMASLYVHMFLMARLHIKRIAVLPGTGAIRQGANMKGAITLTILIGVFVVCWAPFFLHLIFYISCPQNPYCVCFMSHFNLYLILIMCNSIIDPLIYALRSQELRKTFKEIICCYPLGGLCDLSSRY
Sequence of Cytochrome P450 2C9 (P11712 whole entry): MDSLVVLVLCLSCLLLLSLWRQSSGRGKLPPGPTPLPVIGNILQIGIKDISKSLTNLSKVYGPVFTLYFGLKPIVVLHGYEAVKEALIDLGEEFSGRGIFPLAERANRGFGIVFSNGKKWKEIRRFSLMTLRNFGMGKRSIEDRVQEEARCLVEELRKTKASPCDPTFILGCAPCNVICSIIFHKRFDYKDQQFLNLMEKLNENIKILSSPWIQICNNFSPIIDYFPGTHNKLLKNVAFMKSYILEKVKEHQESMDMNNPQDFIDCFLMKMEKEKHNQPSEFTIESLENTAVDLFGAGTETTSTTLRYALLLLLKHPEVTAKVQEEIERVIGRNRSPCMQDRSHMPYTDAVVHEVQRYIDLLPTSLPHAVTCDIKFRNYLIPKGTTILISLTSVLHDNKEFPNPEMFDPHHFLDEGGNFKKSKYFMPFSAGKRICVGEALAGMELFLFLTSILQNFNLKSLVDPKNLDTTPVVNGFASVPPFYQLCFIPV
Sequence of Cytochrome P450 3A4 (P08684 whole entry): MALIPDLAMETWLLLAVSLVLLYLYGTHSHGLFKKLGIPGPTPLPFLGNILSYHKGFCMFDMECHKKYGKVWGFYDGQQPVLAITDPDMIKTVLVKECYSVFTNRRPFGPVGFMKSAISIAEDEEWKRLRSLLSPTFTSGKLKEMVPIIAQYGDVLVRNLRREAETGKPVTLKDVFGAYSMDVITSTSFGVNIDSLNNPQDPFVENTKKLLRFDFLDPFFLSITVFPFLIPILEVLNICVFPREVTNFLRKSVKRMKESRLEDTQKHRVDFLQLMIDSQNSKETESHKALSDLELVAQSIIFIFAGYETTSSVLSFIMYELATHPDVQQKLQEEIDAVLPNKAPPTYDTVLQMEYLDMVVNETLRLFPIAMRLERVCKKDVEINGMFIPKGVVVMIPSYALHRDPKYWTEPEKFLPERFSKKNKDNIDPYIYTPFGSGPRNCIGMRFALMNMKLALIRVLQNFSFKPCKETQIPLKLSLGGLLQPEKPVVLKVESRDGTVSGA
Sequence of Cytochrome P450 2C19 (P33261 whole entry): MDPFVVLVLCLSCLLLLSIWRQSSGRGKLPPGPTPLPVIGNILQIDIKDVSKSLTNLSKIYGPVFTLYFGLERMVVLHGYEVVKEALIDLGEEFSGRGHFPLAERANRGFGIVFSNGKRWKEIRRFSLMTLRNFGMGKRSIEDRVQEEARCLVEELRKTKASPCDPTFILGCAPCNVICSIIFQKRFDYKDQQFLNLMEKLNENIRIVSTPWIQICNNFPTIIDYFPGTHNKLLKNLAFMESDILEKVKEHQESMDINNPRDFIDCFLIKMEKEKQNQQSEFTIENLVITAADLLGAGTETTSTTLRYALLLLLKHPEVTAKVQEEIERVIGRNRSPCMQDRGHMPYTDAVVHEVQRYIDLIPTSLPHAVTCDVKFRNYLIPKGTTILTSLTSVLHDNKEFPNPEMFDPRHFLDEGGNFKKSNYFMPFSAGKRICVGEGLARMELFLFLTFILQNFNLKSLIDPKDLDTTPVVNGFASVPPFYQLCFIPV

SMILES: Nc1c(-c2cccs2)cnn1-c1nc(-c2ccc(Cl)cc2Cl)cs1
- AC50 [1]: 12.6 µM (inconclusive)
- AC50 [2]: 20 µM (inconclusive)
- EC50 [3]: > 89.2 µM (inactive)

SMILES: COc1ccc(OCC(=O)N/N=C2\CCc3ccccc32)cc1
- IC50 [4]: 42.9 µM (active)

SMILES: COc1ccc(F)cc1CN1CCN(C(=O)CCC(=O)Nc2nnc(C(C)C)s2)CC1
- EC50 [5]: 0.841 µM (active)

SMILES: COc1ccc(NC(=O)COC(=O)c2c(NC(C)=O)sc(C)c2C)cc1
- EC50 [3]: > 89.3 µM (inactive)

SMILES: CC1CCCN1CC#CC(O)(c1ccccc1)c1ccccc1 (stereo not drawn)
- EC50 [6]: 0.188 µM (active)

SMILES: CCOc1ccc(N2C(=O)C(Cl)=C(N3CCOCC3)C2=O)cc1
- IC50 [7]: 29.4 µM (active)

SMILES: Cc1ccc(SC[C@H](c2ccccc2)N2CCN(CCc3ccccc3)CCC2=O)cc1
- IC50 [8]: 7.19 µM (not active)

SMILES: COc1cc(/C=C2\C(=O)N(c3cccc(C(=O)O)c3)N=C2C)ccc1OCc1ccccc1
- IC50 [9]: 43.9 µM (active)
- IC50 [7]: 7.99 µM (active)

SMILES: Cc1onc(-c2ccccc2)c1C(=O)Nc1nnc(COc2ccc(Cl)cc2)s1
- IC50 [4]: 8.45 µM (active)

SMILES: O=C(Nc1cc(-c2nc3ccccc3s2)ccc1Cl)c1ccc2c(c1)OCO2
- AC50 [10]: 3.55 µM (inconclusive)
- AC50 [2]: 1.78 µM (inconclusive)
- EC50 [3]: > 89.2 µM (inactive)

SMILES: Cc1ccc(N2C(=O)CC(c3c[nH]c4ccccc34)C2=O)cc1 (stereo not drawn)
- IC50 [8]: 12.1 µM (not active)

SMILES: COc1ccccc1NS(=O)(=O)c1ccc(N/N=C/c2ccccc2OCC(=O)O)c([N+](=O)[O-])c1
- IC50 [7]: 56.5 µM (active)

SMILES: CCCCNS(=O)(=O)c1ccc2[nH]c(SCC(=O)Nc3ccccc3Cl)nc2c1
- IC50 [8]: 18.5 µM (not active)

SMILES: O=C(C1CCCN(c2ncnc3c2nc2n3CCCCC2)C1)N1CCN(c2ccc(Cl)cc2)CC1 (stereo not drawn)
- CC50 [11]: > 40 µM (active)
- IC50 [12]: 4.57 µM (active)

SMILES: COc1ccc(C2CC(c3ccccc3)Nc3nc(NC(=O)c4cccs4)nn32)cc1 (stereo not drawn)
- EC50 [6]: 1.06 µM (active)

SMILES: c1csc(-c2nc(NCC3CCCO3)c3ccccc3n2)c1 (stereo not drawn)
- EC50 [6]: 4.73 µM (active)

SMILES: CC(=O)Nc1cc(-c2ccc(C(=O)N3CCOCC3)cc2)cn2c(-c3ccccc3)cnc12
- EC50 [3]: > 89.2 µM (inactive)
